Results as given in US10689458B2, “Site specific HER2 antibody drug conjugates” (Pfizer Inc., priority 2015, dated 2020).
Entries after “also recorded” stand apart in the source; their conditions may differ. Read-outs that look alike come from different tables or passages of the source. Square brackets hold non-standard residues; d marks the D form. Peptide text beside a SMILES is read from it. * marks the point of attachment. Dolaproine = CO[C@@H]([C@@H]1CCCN1)[C@@H](C)C(=O)O; Dil = CC[C@H](C)[C@H](NC)[C@@H](CC(=O)O)OC; Doe = c1ccc(C[C@H](N*)c2nccs2)cc1; Aib = CC(C)(N)C(=O)O

Experiments:
[1] = system: T-DM1 resistant cells (N87-TDM); experiment: Cytotoxicity on cells relapsed from T-DM1 treatment in vivo (CellTiter Glo, 96 hours); format: cell-based; settings: for IC50: 96 h; for sensitivity of cells relapsed from T-DM1 treatment (in words): compared to parental N87
Protocol: (§1) Cells were incubated for 96 hours in a humidified 37° C./5% CO2 incubator.

parental N87 cells = experiment: Cytotoxicity on parental N87 cells (CellTiter Glo, 96 hours); format: cell-based; settings: free payload, N87 cell line, read-out: Sensitivity to free payload (IC50), N87
Protocol: as §1

N87-TM cells = experiment: Cytotoxicity on T-DM1 resistant cells made in vitro, population not specified (MTS, 4 days); format: cell-based; settings: N87-TM versus N87-parental
Protocol: (§2) N87 cells were passaged into two separate flasks and each flask was treated identically with respect to the resistance-generation protocol to enable biological duplicates. […] The procedure was intended to simulate the chronic, multi-cycle (on/off) dosing at maximally tolerated doses typically used for cytotoxic therapeutics in the clinic, followed by a recovery period. […] Data were collected from various thawed cryopreserved populations derived from a single selection, over approximately 1-2 years after model development to ensure consistency in the results.
(§3) ADCs were prepared as indicated in Example 3. Unconjugated maytansine analog (DM1) and auristatin analogs were prepared by Pfizer Worldwide Medicinal Chemistry (Groton, Conn.). Other standard-of-care chemotherapeutics were purchased from Sigma (St. Louis, Mo.). Cells were seeded in 96-well plates at low density, then treated the following day with ADCs and unconjugated payloads at 3-fold serial dilutions at 10 concentrations in duplicate. Cells were incubated for 4 days in a humidified 37° C./5% CO2 incubator. The plates were harvested by incubating with CellTiter® 96 AQueous One MTS Solution (Promega, Madison, Wis.) for 1.5 hours and absorbance measured on a Victor plate reader (Perkin-Elmer, Waltham, Mass.) at wavelength 490 nm. IC50 values were calculated using a four-parameter logistic model with XLfit (IDBS, Bridgewater, N.J.).

[2] = system: Her2-expressing cell lines BT474 and SKBR3; experiment: ADCC assay (LDH release, NK-92 or human PBMC effector cells); format: cell-based; settings: 1 μg/ml antibody or ADC, 6 hours
Protocol: In ADCC assays, Her2-expressing cell lines BT474 and SKBR3 were used as target cells while NK-92 cells (an interleukin-2 dependent natural killer cell line derived from peripheral blood mononuclear cells from a person by Conkwest) or human peripheral blood mononucleocytes (PBMC) isolated from the freshly drawn blood from a healthy donor (#179) were used as effector cells.
Target cells (BT474 or SKBR3) of 1×10^4 cells/100 μl/well were placed in 96-well plate and cultured overnight in RPMI1640 media at 37° C./5% CO2. […]
Assay plates were incubated at 37° C./5% CO2 for 6 hours and then equilibrated to room temperature. LDH release from cell lysis was measured using CytoTox-One™ reagent at an excitation wavelength of 560 nm and an emission wavelength of 590 nm. […]
“Experimental” corresponds to the signal measured in one of the condition described above.
“Effector spontaneous” corresponds to the signal measured in the presence of PBMC alone.
“Target spontaneous” corresponds to the signal measured in the presence of target cells alone.
“Target Maximum” corresponds to the signal measured in the presence of detergent-lysed target cells alone.

N87 gastric xenografts = experiment: N87 gastric xenograft model; format: in vivo, mouse; settings: IV Q4dx4
Protocol: (§4) For each model described below the first dose was given on Day 1. The tumors were measured at least once a week and their volume was calculated with the formula: tumor volume (mm^3)=0.5× (tumor width^2)(tumor length). The mean tumor volumes (±S.E.M.) for each treatment group were calculated having a maximum of 8-10 animals and a minimum of 6-8 animals to be included.
When the tumors reached a volume of 250 to 450 mm^3, the tumors were staged to ensure uniformity of the tumor mass among various treatment groups.

[3] = system: GA0044 patient-derived xenografts; experiment: GA0044 patient-derived gastric cancer xenograft model; format: in vivo, mouse; settings: IV Q4dx4, dose not stated
[4] = system: N87 cell line xenograft tumors; experiment: Bystander effect, immunohistochemistry (human IgG, pHH3) of N87 xenograft tumors; format: in vivo, mouse; settings: single dose, T-DM1 6 mg/kg or T-vc0101 3 mg/kg, 96 hours
Text: Tumor sections were stained for human IgG to detect ADC bound to tumor cells and phospho-histone H3 (pHH3) to detect mitotic cells as a readout of the proposed mechanism of action for the payloads of both ADCs.

N87 cells = settings: read-out: IC80, payload concentration, approximate
Protocol: as §2, §3

N87 tumors = experiment: In vivo efficacy on parental N87 tumors in NSG mice; set-up: species or system mouse; settings: 6 and 10 mg/kg, Q4Dx4, N87 model
Protocol: Mice were injected subcutaneously in the right flank with suspensions of either N87 or N87-TM cells (7.5×10^6 cells per injection, with 50% Matrigel). Mice were randomized into study groups when tumors reached ˜0.3 g (˜250 mm^3). […] Tumors were measured weekly and mass calculated as volume=(width×width×length)/2. Time-to-event analysis (tumor doubling) was conducted and significance evaluated by Log-rank (Mantel-Cox) test.

N87 xenografts = experiment: T-DM1 resistance generated in vivo in N87 xenografts and follow-on treatment; set-up: species or system mouse; settings: […] weekly, n=20
Protocol: Tumors were measured twice per week or weekly and mass calculated as volume=(width×width×length)/2.

JIMT-1 breast xenografts = settings: even at 6 mg/kg, IV Q4dx4
Protocol: as §4
To generate xenografts, nude (Nu/Nu) female mice were implanted subcutaneously with 5×10^6 JIMT-1 cells (DSMZ # ACC-589) in 50% Matrigel (BD Biosciences). When the tumors reached a volume of 200 to 250 mm^3, the tumors were staged to ensure uniformity of the tumor mass among various treatment groups.

[5] = system: 144580 breast patient-derived xenografts; settings: all doses tested (1, 5, 3 and 6 mg/kg), IV Q4dx4
Protocol: as §4
The 144580 breast patient-derived xenografts were subcutaneously passaged in vivo as fragments from animal to animal in nude (Nu/Nu) female mice. When the tumors reached a volume of 150 to 300 mm^3, they were staged to ensure uniformity of the tumor size among various treatment groups.

[6] = system: 37622 patient-derived xenografts; settings: 10 mg/kg, IV Q4dx4
Protocol: as §4
Several ADCs were tested in patient-derived Non-Small Cell Lung Cancer xenograft model of 37622 obtained in accordance with appropriate consent procedures. The 37622 patient-derived xenografts were subcutaneously passaged in vivo as fragments from animal to animal in nude (Nu/Nu) female mice. When the tumors reached a volume of 150 to 300 mm^3, they were staged to ensure uniformity of the tumor size among various treatment groups.

[7] = read-out: Sensitivity to free payload (IC50), N87-T-DM1_Ms2
[8] = read-out: Sensitivity to free payload (IC50), N87-T-DM1_Ms7
[9] = read-out: Sensitivity to free payload (IC50), N87-T-DM1_Ms17

Row | Compound | IC50 [1, 7] [nM] | IC50 [1, 8] [nM] | IC50 [1, 9] [nM] | IC50 (parental N87 cells) [nM] | sensitivity of N87-TM cells (in words) (N87-TM cells) | sensitivity of cells relapsed from T-DM1 treatment (in words) [1] | also measured
1 | CC[C@H](C)[C@@H]([C@@H](CC(=O)N1CCC[C@H]1[C@H](OC)[C@@H](C)C(=O)N[C@@H](Cc1ccccc1)c1nccs1)OC)N(C)C(=O)[C@@H](NC(=O)C(C)(C)N)C(C)C [Aur-0101] (H-[Aib]V[Dil][Dolaproine]-Doe) | 0.4 | 0.6 | 0.28 | 0.5 |  |  | 
2 | COc1cc2cc(c1Cl)N(C)C(=O)C[C@H](OC(=O)[C@H](C)N(C)C(=O)CCS)[C@]1(C)O[C@H]1[C@H](C)[C@@H]1C[C@@](O)(NC(=O)O1)[C@H](OC)/C=C/C=C(\C)C2 [DM1] |  |  |  |  | retained sensitivity |  | 
3 | CC[C@H](C)[C@@H]([C@@H](CC(=O)N1CCC[C@H]1[C@H](OC)[C@@H](C)C(=O)N[C@@H](Cc1ccccc1)c1nccs1)OC)N(C)C(=O)[C@@H](NC(=O)C(C)(C)N)C(C)C [compound 0101, 2-methylalanyl-N-[(3R,4S,5S)-3-methoxy-1-{(2S)-2-[(1R,2R)-1-methoxy-2-methyl-3-oxo-3-{[(1S)-2-phenyl-1-(1,3-thiazol-2-yl)ethyl]amino}propyl]pyrrolidin-1-yl}-5-methyl-1-oxoheptan-4-yl]-N-methyl-L-valinamide] (H-[Aib]V[Dil][Dolaproine]-Doe) |  |  |  |  | retained sensitivity | surprisingly sensitive; also recorded: not resistant | 
4 | COc1cccc2c1C(=O)c1c(O)c3c(c(O)c1C2=O)C[C@@](O)(C(=O)CO)C[C@@H]3O[C@H]1C[C@H](N)[C@H](O)[C@H](C)O1 [doxorubicin] | 46 | 79 | 34 | 48 | lack of cross-resistance | No resistance | 
5 | CC(=O)O[C@H]1C(=O)[C@@]2(C)[C@H]([C@H](OC(=O)c3ccccc3)[C@]3(O)C[C@H](OC(=O)[C@H](O)[C@@H](NC(=O)c4ccccc4)c4ccccc4)C(C)=C1C3(C)C)[C@]1(OC(C)=O)CO[C@@H]1C[C@@H]2O [paclitaxel] |  |  |  |  | lack of cross-resistance |  | 
6 | T-DM1 |  |  |  |  |  | resistant | ADCC activity (in words) [2]: conform the reported ADCC activities; tumor response (N87 gastric xenografts; 10 mg/kg): complete regression of tumors; tumor response (N87 gastric xenografts; 1 and 3 mg/kg): delayed tumor growth; tumor growth compared to vehicle [3]: no appreciable difference in tumor growth as compared to vehicle treated tumors; location of the majority of pHH3 positive tumor cells [4]: located near the ADC; IC80 (N87 cells): ~10 nM; mice in which tumor doubling was prevented for at least 60 days (N87 tumors): > 50%; mice that responded to initial T-DM1 treatment (N87 xenografts): 17 out of 20; tumor response (JIMT-1 breast xenografts): inactive; tumor response [5]: ineffective; tumor response [6]: only provided some therapeutic benefit
